What was measured:
IL-10 [1] = assay: IL-10 production by LPS-stimulated murine peritoneal macrophage (ELISA); format: cell-based, mice; conditions: murine peritoneal macrophage
Experimental: (§1) Peritoneal macrophage or splenocytes (lymphocytes and macrophage) were harvested from donor mice using standard techniques. Cells were placed in culture and stimulated with either LPS (10 μg/mL) or concanavalin A 5 μg/mL (Sigma Chemical Co., St Louis, Mo.) in RPMI-1640 medium supplemented with antibiotics, […] 2-mercaptoethanol, 10 mm HEPES buffer and 10% fetal calf serum (FCS) (see Holan et al., 1985) to stimulate macrophage and T-cells respectively. Compounds were added from DMSO stock solutions to a final concentration of 50 μM or less with DMSO not exceeding 1% of total volume. After 72 h, cell supernatant was recovered and the cytokine levels were estimated by ELISA. The effect of compounds on cytokine production was recorded as follows: […]

IL-1β = IL-1β production by LPS-stimulated macrophages; format: cell-based, mice; conditions: 5 μM, 72 h
Experimental: as §1

IL-4 = IL-4 production, Con A, spleen; format: cell-based, mice; conditions: 5 μM, 72 h
Experimental: as §1

T cells = assay: Proliferation of Con A-stimulated T cells; format: cell-based, mice; conditions: 10 μM
Experimental: as §1

B cells = assay: Proliferation of LPS-stimulated B cells; format: cell-based, mice; conditions: 10 μM
IFNg = IFNg gene expression in murine pancreatic cancer tumours (real time PCR); format: in vivo, mice; conditions: tumour mRNA; daily i.p. 10 μmol/kg; vehicle 1.0
Experimental: (§2) For treatment of pancreatic cancer, mice susceptible to pancreatic cancer were observed until cancer was apparent. Thereafter, animals were classified by ultrasound to a group of similar tumour size and were allocated to treatments: Vehicle, Gemcitabine 100 mg/kg every 5th day, or Gemcitabine plus the IL-10 inhibitor 43j ([…] i.p.), or the IL-12 stimulant 49 (10 μmol/kg/day i.p.) or all three combined at the doses specified.
(§3) Murine pancreatic cancer was induced as in Example 61. Mice carrying tumours were selected when the tumour was first detectable by ultrasound and the animals allocated to groups treated with either Vehicle, 49 alone or 43J alone or the combination of 49 and 43j. Compounds were supplied daily i.p. at 10 μmol/kg. Gene expression as determined by mRNA levels is determined by real time PCR methods using reverse transcribed templates.

IL-10 [2] = assay: IL-10 gene expression in murine pancreatic cancer tumours (real time PCR); format: in vivo, mice; conditions: tumour mRNA; daily i.p. 10 μmol/kg; vehicle 21.4
Experimental: as §2, §3

IL-12 [3] = assay: IL-12 gene expression in murine pancreatic cancer tumours (real time PCR); format: in vivo, mice; conditions: tumour mRNA; daily i.p. 10 μmol/kg; vehicle 3.1
Experimental: as §2, §3

IL-23 = IL-23 gene expression in murine pancreatic cancer tumours (real time PCR); format: in vivo, mice; conditions: tumour mRNA; daily i.p. 10 μmol/kg; vehicle 15.2
Experimental: as §2, §3

IL-17 = IL-17 gene expression in murine pancreatic cancer tumours (real time PCR); format: in vivo, mice; conditions: tumour mRNA; daily i.p. 10 μmol/kg; vehicle 17.8
Experimental: as §2, §3

IL-6 = IL-6 gene expression in murine pancreatic cancer tumours (real time PCR); format: in vivo, mice; conditions: tumour mRNA; daily i.p. 10 μmol/kg; vehicle 22.5
Experimental: as §2, §3

TNFa = TNFa gene expression in murine pancreatic cancer tumours (real time PCR); format: in vivo, mice; conditions: tumour mRNA; daily i.p. 10 μmol/kg; vehicle 15.2
Experimental: as §2, §3

IL-10 [4] = assay: IL-10 production by bone marrow derived macrophage or tumour associated macrophage; format: cell-based, C57BL/6 mice; conditions: 1 or 10 μM; stimulant such as LPS or TNFa or tumour conditioned medium
Experimental: (§4) A similar experiment can be performed using Bone marrow derived macrophage or Tumour associated macrophage (TAM): Mouse macrophages were derived from the bone marrow of WT, C57BL/6 mice and cultured for 7 d in DMEM medium supplemented with 10 ng/ml recombinant mouse M-CSF (R & D Systems). TAMs were isolated from the peritoneal cavity of mice in which IDB ovarian cancers had been growing i.p. for up to 10 wk. The macrophage are then treated with the compound to test at 1 or 10 μM in the presence of a stimulant such as LPS or TNFa or tumour conditioned medium.

IL-12 [5] = assay: IL-12 production by bone marrow derived macrophage or tumour associated macrophage; format: cell-based, C57BL/6 mice; conditions: 1 or 10 μM; stimulant such as LPS or TNFa or tumour conditioned medium
Experimental: as §4

pancreatic cancer = assay: Survival of mice with pancreatic cancer; format: in vivo; conditions: Gemcitabine 100 mg/kg every 5th day; 43j 10 mmol/kg/d i.p.; 49 10 μmol/kg/day i.p.
Experimental: as §2

[6] = test system: Lewis Lung Carcinoma Cells (LLC); assay: Subcutaneous Lewis Lung Carcinoma tumour growth; format: in vivo, C57BLK6 mice; conditions: 12.5 mg/kg p.o. once daily
Experimental: Lewis Lung Carcinoma Cells (LLC) are cultured by incubation in a medium which is RPMI 1640 (50%) and DMEM (50%) with a final concentration or fetal calf serum of 10%. After culture to the log phase, 10^5 cells are injected subcutaneously in […] mice. Mice are treated with substance either orally or via intraperitoneal injection.

SMILES: CC[C@H]1OC(=O)[C@H](C)[C@@H](O[C@H]2C[C@@](C)(OC)[C@@H](O)[C@H](C)O2)[C@H](C)[C@@H](O[C@@H]2O[C@H](C)C[C@H](N(C)CCCC(=O)OCC(O)CSc3nc(-c4ccc(F)cc4)c(-c4ccncc4)[nH]3)[C@H]2O)[C@](C)(O)C[C@@H](C)CN(C)[C@H](C)[C@@H](O)[C@]1(C)O (some centres unmarked) [Compound 43g]
- IL-10 by ELISA, % of solvent treated control (IL-10 [1]; 1.25 μM inhibitor in medium): 26 % of solvent treated control
- IL-10 by ELISA, % of solvent treated control (IL-10 [1]; 5 μM inhibitor in medium): −12 % of solvent treated control
- IL-10 by ELISA, % of solvent treated control (IL-10 [1]; 20 μM inhibitor in medium): −12 % of solvent treated control
- IL-1β (Macrophages, LPS), amount of cytokine (IL-1β): 28 % of control treated with solvent alone
- IL-4 (Con A, spleen), amount of cytokine (IL-4): 125 % of control treated with solvent alone
- Proliferation (Con A, T cells) (T cells): 3 % of control treated with solvent alone
- Proliferation (LPS, B cells) (B cells): −1 % of control treated with solvent alone

SMILES: CC[C@H]1OC(=O)[C@H](C)[C@@H](O[C@H]2C[C@@](C)(OC)[C@@H](O)[C@H](C)O2)[C@H](C)[C@@H](O[C@@H]2O[C@H](C)C[C@H](N(C)CCCCCC(=O)OCCSc3nc(-c4ccc(F)cc4)c(-c4ccnc(NC5CCOCC5)c4)[nH]3)[C@H]2O)[C@](C)(O)C[C@@H](C)CN(C)[C@H](C)[C@@H](O)[C@]1(C)O [Compound 43j]
- Relative Gene expression, IFNg (IFNg): 4.2
- Relative Gene expression, IL-10 (IL-10 [2]): 3.1
- Relative Gene expression, IL-12 (IL-12 [3]): 3.4
- Relative Gene expression, IL-23 (IL-23): 11.0
- Relative Gene expression, IL-17 (IL-17): 14.6
- Relative Gene expression, IL-6 (IL-6): 15.2
- Relative Gene expression, TNFa (TNFa): 13.1
- production of IL-10 (IL-10 [4]): inhibits the production of IL-10

SMILES: Nc1c(C(=O)c2cccc(OCC(O)CO)c2)cnn1-c1ccc(F)cc1 (centres unmarked) [Compound 49, [5-Amino-1-(4-fluoro-phenyl)-1H-pyrazol-4-yl]-[3-(2,3-dihydroxy-propoxy)-phenyl]-methanone]
- IL-10 by ELISA, % of solvent treated control (IL-10 [1]; 1.25 μM inhibitor in medium): 41 % of solvent treated control
- IL-10 by ELISA, % of solvent treated control (IL-10 [1]; 5 μM inhibitor in medium): 42 % of solvent treated control
- IL-10 by ELISA, % of solvent treated control (IL-10 [1]; 20 μM inhibitor in medium): 13 % of solvent treated control
- IL-4 (Con A, spleen), amount of cytokine (IL-4): 188 % of control treated with solvent alone
- Relative Gene expression, IFNg (IFNg): 6.3
- Relative Gene expression, IL-10 (IL-10 [2]): 8.9
- Relative Gene expression, IL-12 (IL-12 [3]): 28.8
- Relative Gene expression, IL-23 (IL-23): 2.1
- Relative Gene expression, IL-17 (IL-17): 15.2
- Relative Gene expression, IL-6 (IL-6): 18.3
- Relative Gene expression, TNFa (TNFa): 21.4
- production of IL-12 (IL-12 [5]): stimulates the production of IL-12

SMILES: Nc1ccn([C@@H]2O[C@H](CO)[C@@H](O)C2(F)F)c(=O)n1 [Gemcitabine]
- survival time relative to vehicle (pancreatic cancer): 1.5 fold

SMILES: CCc1nc(-c2cccc(C)c2)c(-c2ccnc(NC(=O)c3ccccc3)c2)s1 [TAK-715]
- growth rate of the LLC tumour [6]: reduction in the growth rate of the LLC tumour

Reference: patent publication US9617221B2, “Kinase modulators for the treatment of cancer” (Synovo GmbH, priority 2010, dated 2017)
